Measurements as given in ChEMBL document CHEMBL1201862, “PubChem BioAssay data set” (2004).
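Briefly, cells in 96-well plates were exposed to five compound concentrations for 48 h, and endpoints were estimated by linear interpolation. Here, GI50 denotes the concentration required for 50% inhibition of growth.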 Activity calls are given as the source filed them. No stated cut-off is given here; in the data, active = GI50 up to about 1.1 µM and inactive = higher.

Key:
Experiment in all cases: growth of human tumour cells (NCI), 48 h
[1] = tested on: Malme-3M
[2] = tested on: MDA-N
[3] = tested on: T47D
[4] = tested on: OVCAR-5
[5] = tested on: UACC-62
[6] = tested on: HOP-62
[7] = tested on: K562
[8] = tested on: HCT-15
[9] = tested on: TK-10
[10] = tested on: SF-539
[11] = tested on: OVCAR-4
[12] = tested on: NCI/ADR-RES
[13] = tested on: LOX IMVI
[14] = tested on: SK-MEL-28
[15] = tested on: HCT-116
[16] = tested on: UO-31
[17] = tested on: M14
[18] = tested on: CCRF-CEM
[19] = tested on: SK-MEL-2
[20] = tested on: A498

Row | Structure (SMILES) | GI50 [1] | GI50 [2] | GI50 [3] | GI50 [4] | GI50 [5] | GI50 [6] | GI50 [7] | GI50 [8] | GI50 [9] | GI50 [10] | GI50 [11] | GI50 [12] | GI50 [13] | GI50 [14] | GI50 [15] | GI50 [16] | GI50 [17] | GI50 [18] | GI50 [19] | GI50 [20]
1 | CN1CCC2(CC1)C(=O)N(NC(N)=O)C(=O)C2c1ccccc1 (stereo not given) | > 100 µM (inactive) | > 100 µM (inactive) | > 100 µM (inactive) | > 100 µM (inactive) | > 100 µM (inactive) | > 100 µM (inactive) | > 100 µM (inactive) | > 100 µM | > 100 µM (inactive) | > 100 µM (inactive) | > 100 µM (inactive) | > 100 µM (inactive) | > 100 µM (inactive) | > 100 µM (inactive) | > 100 µM (inactive) | > 100 µM (inactive) | > 100 µM (inactive) | > 100 µM (inactive) | > 100 µM (inactive) | –
2 | CCOC(=O)C(=O)CC(=O)C1=C(c2ccccc2OC)CC(c2cccs2)=CC1=O | > 100 µM (inactive) | 36.1 µM (inactive) | 90.6 µM (inactive) | > 100 µM (inactive) | > 100 µM (inactive) | 45.4 µM (inactive) | 23.4 µM (inactive) | 82.4 µM | > 100 µM (inactive) | 67.1 µM (inactive) | – | 46 µM (inactive) | 83.9 µM (inactive) | > 100 µM (inactive) | 31.7 µM (inactive) | > 100 µM (inactive) | 26.1 µM (inactive) | 37.1 µM (inactive) | 78.9 µM (inactive) | > 100 µM (inactive)
3 | O=S(=O)(/N=C(\NO)Nc1ccc(Cl)cc1)c1cccc2nsnc12 | 21.2 µM (inactive) | 54.1 µM (inactive) | 48.1 µM (inactive) | 26.9 µM (inactive) | 21.6 µM (inactive) | > 100 µM (inactive) | 19.7 µM (inactive) | 18.3 µM | 55.7 µM (inactive) | 59.3 µM (inactive) | 13.7 µM (inactive) | 46 µM (inactive) | 20.3 µM (inactive) | 18.7 µM (inactive) | 32 µM (inactive) | 65.2 µM (inactive) | 35.4 µM (inactive) | 26.1 µM (inactive) | 16.4 µM (inactive) | –
4 | c1ccc2[nH]c(C3CCCCO3)nc2c1 (stereo not given) | > 100 µM (inactive) | > 100 µM (inactive) | > 100 µM (inactive) | > 100 µM (inactive) | > 100 µM (inactive) | > 100 µM (inactive) | > 100 µM (inactive) | > 100 µM | > 100 µM (inactive) | > 100 µM (inactive) | > 100 µM (inactive) | > 100 µM (inactive) | > 100 µM (inactive) | > 100 µM (inactive) | > 100 µM (inactive) | > 100 µM (inactive) | > 100 µM (inactive) | > 100 µM (inactive) | > 100 µM (inactive) | –
5 | CCOP(=O)(OCC)/C(=C\N1C(=O)CC(=O)NC1=S)C(=O)OC | – | > 100 µM (inactive) | > 100 µM (inactive) | > 100 µM (inactive) | > 100 µM (inactive) | > 100 µM (inactive) | – | > 100 µM | > 100 µM (inactive) | > 100 µM (inactive) | > 100 µM (inactive) | > 100 µM (inactive) | > 100 µM (inactive) | > 100 µM (inactive) | > 100 µM (inactive) | > 100 µM (inactive) | > 100 µM (inactive) | – | > 100 µM (inactive) | > 100 µM (inactive)
6 | CCCC(=O)NC(Nc1ccc(S(=O)(=O)Nc2cc(C)on2)cc1)(C(=O)OCC)C(F)(F)F (stereo not given) | > 100 µM (inactive) | > 100 µM (inactive) | > 100 µM (inactive) | > 100 µM (inactive) | > 100 µM (inactive) | > 100 µM (inactive) | > 100 µM (inactive) | > 100 µM | > 100 µM (inactive) | > 100 µM (inactive) | > 100 µM (inactive) | > 100 µM (inactive) | > 100 µM (inactive) | > 100 µM (inactive) | > 100 µM (inactive) | > 100 µM (inactive) | > 100 µM (inactive) | > 100 µM (inactive) | > 100 µM (inactive) | –
7 | O=C(c1cccs1)N(C(=S)OCc1ccccn1)c1ccccc1 | 18.6 µM (inactive) | > 100 µM (inactive) | 53.8 µM (inactive) | 23.4 µM (inactive) | > 100 µM (inactive) | – | 42 µM (inactive) | 53.2 µM | > 100 µM (inactive) | 38.5 µM (inactive) | – | 35.2 µM (inactive) | 96.4 µM (inactive) | > 100 µM (inactive) | 63.5 µM (inactive) | 32.6 µM (inactive) | > 100 µM (inactive) | 40.6 µM (inactive) | > 100 µM (inactive) | 75.5 µM (inactive)
8 | Cc1ccc2c(c1C)C(=O)C1(C2)Cc2ccc3c(c2C1=O)CCC3 (stereo not given) | > 100 µM (inactive) | > 100 µM (inactive) | > 100 µM (inactive) | > 100 µM (inactive) | > 100 µM (inactive) | – | > 100 µM (inactive) | > 100 µM | > 100 µM (inactive) | 29.9 µM (inactive) | > 100 µM (inactive) | > 100 µM (inactive) | – | > 100 µM (inactive) | > 100 µM (inactive) | > 100 µM (inactive) | 2.03 µM (inactive) | > 100 µM (inactive) | > 100 µM (inactive) | > 100 µM (inactive)
9 | C=C1CC(COc2ccc3ccc(=O)oc3c2)(c2ccccc2)OC1=O (stereo not given) | 2.33 µM (inactive) | 1.11 µM (active) | 1.87 µM (inactive) | 5.87 µM (inactive) | 1.45 µM (inactive) | 11.6 µM (inactive) | 0.266 µM (active) | 1.87 µM | 1.54 µM (inactive) | 3.46 µM (inactive) | 1.49 µM (inactive) | 2.48 µM (inactive) | 0.942 µM (active) | 2.3 µM (inactive) | 0.597 µM (active) | 5.19 µM (inactive) | 1.18 µM (inactive) | 0.233 µM (active) | 1.53 µM (inactive) | –
10 | COC1CC(OC2CCC3(C)C(CCC45CCC(C6=CC(=O)OC6)C(C)(CCC43)C5=O)C2)OC(C)C1O (stereo not given) | – | > 100 µM (inactive) | 30.8 µM (inactive) | 40.8 µM (inactive) | > 100 µM (inactive) | 27 µM (inactive) | 59.8 µM (inactive) | 24.3 µM | 51.2 µM (inactive) | 20.3 µM (inactive) | – | 32.5 µM (inactive) | 38.4 µM (inactive) | > 100 µM (inactive) | 35.1 µM (inactive) | 16.5 µM (inactive) | > 100 µM (inactive) | 18.4 µM (inactive) | 31.3 µM (inactive) | 71.4 µM (inactive)
11 | COc1ccc(N2C(=O)C3c4[nH]c5c(C)cccc5c4C4CCC(c5ccccc5)CC4C3C2=O)cc1 (stereo not given) | – | 13.5 µM (inactive) | 5.81 µM (inactive) | 15.5 µM (inactive) | > 10 µM (inactive) | 14 µM (inactive) | – | 11.9 µM | 32.1 µM (inactive) | – | 11.1 µM (inactive) | 30.3 µM (inactive) | 13.8 µM (inactive) | 12 µM (inactive) | 13.4 µM (inactive) | 20.9 µM (inactive) | 11.9 µM (inactive) | 1.28 µM (inactive) | 24.2 µM (inactive) | 18.2 µM (inactive)
12 | NC(=O)N/N=C1\C[C@H]2CCCC[C@H]2C1 | – | > 100 µM (inactive) | > 100 µM (inactive) | > 100 µM (inactive) | > 100 µM (inactive) | > 100 µM (inactive) | > 100 µM (inactive) | > 100 µM | > 100 µM (inactive) | > 100 µM (inactive) | > 100 µM (inactive) | > 100 µM (inactive) | > 100 µM (inactive) | > 100 µM (inactive) | > 100 µM (inactive) | > 100 µM (inactive) | > 100 µM (inactive) | – | > 100 µM (inactive) | > 100 µM (inactive)
13 | O=C1OC(=O)c2cc(S(=O)(=O)c3ccc4c(c3)C(=O)OC4=O)ccc21 | 24.1 µM (inactive) | > 100 µM (inactive) | > 100 µM (inactive) | > 100 µM (inactive) | > 100 µM (inactive) | > 100 µM (inactive) | > 100 µM (inactive) | > 100 µM | > 100 µM (inactive) | > 100 µM (inactive) | > 100 µM (inactive) | > 100 µM (inactive) | > 100 µM (inactive) | > 100 µM (inactive) | > 100 µM (inactive) | > 100 µM (inactive) | > 100 µM (inactive) | > 100 µM (inactive) | > 100 µM (inactive) | –
14 | Clc1ccc(Cc2nc3cc(Cl)ccc3o2)cc1 | 36.1 µM (inactive) | 36.1 µM (inactive) | 35.8 µM (inactive) | 39.4 µM (inactive) | 36.9 µM (inactive) | 17.4 µM (inactive) | 46.1 µM (inactive) | 29.5 µM | 52 µM (inactive) | 30.1 µM (inactive) | 24.4 µM (inactive) | 31.9 µM (inactive) | 14 µM (inactive) | 41.4 µM (inactive) | 35.1 µM (inactive) | 32 µM (inactive) | 34.8 µM (inactive) | 31.6 µM (inactive) | 15.7 µM (inactive) | –
15 | Cc1ccc(S(=O)(=O)N2CC3OC(C)(C)OC3C2CO)cc1 (stereo not given) | > 100 µM (inactive) | > 100 µM (inactive) | > 100 µM (inactive) | > 100 µM (inactive) | – | > 100 µM (inactive) | > 100 µM (inactive) | > 100 µM | > 100 µM (inactive) | > 100 µM (inactive) | > 100 µM (inactive) | > 100 µM (inactive) | – | > 100 µM (inactive) | > 100 µM (inactive) | – | > 100 µM (inactive) | > 100 µM (inactive) | > 100 µM (inactive) | > 100 µM (inactive)
